Source: patent publication US20230312587A1, “PTERIDINONE COMPOUNDS AND USES THEREOF” (Vertex Pharmaceutical Incorporated, priority 2018, published 2023)
Like-named read-outs stand apart in the source and are kept apart here. One block for each compound: values may come before it.

What was measured:
[1] = system: β-catenin-TCF-mediated reporter transcription activity in Colo 205 cells; assay: Colo 205 reporter assay (TCF/LEF luciferase); assay type: cell-based; settings: Colo 205 TCF/LEF luciferase reporter, five hours after addition of compound, read-out: TCF reporter Colo205 IC50
How it was run: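 Luciferase signal from a TCF/LEF-driven reporter, stably integrated in Colo 205 colon cancer cells, was measured 5 h after compound addition.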

[2] = biological target: HEK293 membranes over-expressing WFS-1 (Homo sapiens (Human), UniProt O76024); assay: Radioligand displacement assay (tritiated Compound 136 probe); assay type: binding; settings: displacement of tritiated Compound 136
How it was run: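 WFS-1-overexpressing HEK293 membranes were preincubated 10 min with compound, then tritiated probe was added for 90 min at room temperature. Bound probe was collected by filtration on PEI-pretreated GF/B filters, washed and scintillation-counted. IC50 came from a 3-parameter fit of bound probe vs compound concentration.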

HEK293 membranes over-expressing WFS-1, sequence (O76024 whole entry): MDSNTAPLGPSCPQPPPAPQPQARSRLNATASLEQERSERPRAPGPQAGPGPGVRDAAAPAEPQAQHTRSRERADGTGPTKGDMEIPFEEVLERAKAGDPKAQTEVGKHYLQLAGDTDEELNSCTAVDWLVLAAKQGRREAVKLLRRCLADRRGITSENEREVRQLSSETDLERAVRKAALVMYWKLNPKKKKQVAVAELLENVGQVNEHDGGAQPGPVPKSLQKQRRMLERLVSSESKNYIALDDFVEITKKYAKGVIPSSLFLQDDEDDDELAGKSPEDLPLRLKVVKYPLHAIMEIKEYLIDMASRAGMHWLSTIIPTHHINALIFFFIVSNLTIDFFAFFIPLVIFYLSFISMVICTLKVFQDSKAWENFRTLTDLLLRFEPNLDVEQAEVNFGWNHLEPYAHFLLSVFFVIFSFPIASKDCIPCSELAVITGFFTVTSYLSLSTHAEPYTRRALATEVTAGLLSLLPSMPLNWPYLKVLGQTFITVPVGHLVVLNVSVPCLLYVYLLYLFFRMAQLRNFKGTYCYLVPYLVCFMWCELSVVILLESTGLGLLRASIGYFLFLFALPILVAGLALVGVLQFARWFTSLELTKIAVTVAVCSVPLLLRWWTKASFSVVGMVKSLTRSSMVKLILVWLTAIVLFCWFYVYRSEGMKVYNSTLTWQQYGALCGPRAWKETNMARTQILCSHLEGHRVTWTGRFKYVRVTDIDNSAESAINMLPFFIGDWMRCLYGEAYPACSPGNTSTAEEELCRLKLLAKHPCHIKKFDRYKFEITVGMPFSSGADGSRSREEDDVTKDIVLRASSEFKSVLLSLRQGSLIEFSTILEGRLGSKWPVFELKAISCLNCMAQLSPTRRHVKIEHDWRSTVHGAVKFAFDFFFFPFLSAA

Compound: Cc1nc(N[C@H]2CC[C@H](n3ccc(C(F)(F)F)n3)C2)nc2c1NC(=O)[C@H](C)N2C (single isomer, unassigned) [Compound 310]
- IC50 ([1]; Homo sapiens, COLO 205, 5 h): 1000 to 5000 nM
- IC50 [2]: 600 to 3000 nM

Compound: Cc1nc(NCc2cnn(Cc3ccc(F)cc3)c2)nc2c1N(C)C(=O)[C@H](C)N2C [Compound 1, (7S)-2-(((1-(4-fluorobenzyl)-1H-pyrazol-4-yl)methyl)amino)-4,5,7,8-tetramethyl-7,8-dihydropteridin-6(5H)-one]
- IC50 ([1]; Homo sapiens, COLO 205, 5 h): < 300 nM
- IC50 [2]: 60 to 600 nM

Compound: Cc1nc(NCc2cnn(Cc3ccc(F)cc3)c2)nc2c1NC(=O)[C@H](C)N2C [Compound 4, (7S)-2-(((1-(4-fluorobenzyl)-1H-pyrazol-4-yl)methyl)amino)-4,7,8-trimethyl-7,8-dihydropteridin-6(5H)-one]
- IC50 ([1]; Homo sapiens, COLO 205, 5 h): < 300 nM
- IC50 [2]: 60 to 600 nM

Compound: Cc1nc(NCc2cnn(CCc3ccc(F)cc3)c2)nc2c1NC(=O)[C@H](C)N2C [Compound 6, (7S)-2-(((1-(4-fluorophenethyl)-1H-pyrazol-4-yl)methyl)amino)-4,7,8-trimethyl-7,8-dihydropteridin-6(5H)-one]
- IC50 ([1]; Homo sapiens, COLO 205, 5 h): 300 to 1000 nM
- IC50 [2]: 60 to 600 nM

Compound: Cc1nc(NCc2cnn(CC3CCC3)c2)nc2c1N(C)C(=O)[C@H](C)N2C [Compound 7, (7S)-2-(((1-(cyclobutylmethyl)-1H-pyrazol-4-yl)methyl)amino)-4,5,7,8-tetramethyl-7,8-dihydropteridin-6(5H)-one]
- IC50 ([1]; Homo sapiens, COLO 205, 5 h): 300 to 1000 nM
- IC50 [2]: 60 to 600 nM

Compound: Cc1nc(NCc2cnn(CCc3ccc(F)cc3)c2)nc2c1N(C)C(=O)[C@H](C)N2C [Compound 8, (7S)-2-(((1-(4-fluorophenethyl)-1H-pyrazol-4-yl)methyl)amino)-4,5,7,8-tetramethyl-7,8-dihydropteridin-6(5H)-one]
- IC50 ([1]; Homo sapiens, COLO 205, 5 h): 300 to 1000 nM
- IC50 [2]: 600 to 3000 nM

Compound: CC[C@H]1C(=O)Nc2cnc(NCc3cnn(Cc4ccc(F)cc4)c3)nc2N1C [Compound 9, (7S)-7-ethyl-2-(((1-(4-fluorobenzyl)-1H-pyrazol-4-yl)methyl)amino)-8-methyl-7,8-dihydropteridin-6(5H)-one]
- IC50 ([1]; Homo sapiens, COLO 205, 5 h): < 300 nM
- IC50 [2]: 60 to 600 nM

Compound: Cc1nc(NCc2cnn(Cc3ccc(F)nc3)c2)nc2c1NC(=O)[C@H](C)N2C [Compound 77]
- IC50 ([1]; Homo sapiens, COLO 205, 5 h): < 300 nM
- IC50 [2]: 60 to 600 nM

Compound: Cc1cc(F)ncc1Cn1cc(CNc2nc(C)c3c(n2)N(C)[C@@H](C)C(=O)N3)cn1 [Compound 94, (7S)-2-(((1-((6-fluoro-4-methylpyridin-3-yl)methyl)-1H-pyrazol-4-yl)methyl)amino)-4,7,8-trimethyl-7,8-dihydropteridin-6(5H)-one]
- IC50 ([1]; Homo sapiens, COLO 205, 5 h): < 300 nM
- IC50 [2]: 60 to 600 nM

Compound: Cc1nc(NCc2cnn(CCC3CCOCC3)c2)nc2c1NC(=O)[C@H](C)N2C [Compound 115, (7S)-4,7,8-trimethyl-2-(((1-(2-(tetrahydro-2H-pyran-4-yl)ethyl)-1H-pyrazol-4-yl)methyl)amino)-7,8-dihydropteridin-6(5H)-one]
- IC50 ([1]; Homo sapiens, COLO 205, 5 h): 1000 to 5000 nM
- IC50 [2]: 600 to 3000 nM

Compound: CCOc1ccc(CCn2cc(CNc3ncc4c(n3)N(C)[C@@H](C)C(=O)N4)cn2)cc1 [Compound 121, (7S)-2-(((1-(4-ethoxyphenethyl)-1H-pyrazol-4-yl)methyl)amino)-7,8-dimethyl-7,8-dihydropteridin-6(5H)-one]
- IC50 ([1]; Homo sapiens, COLO 205, 5 h): 1000 to 5000 nM
- IC50 [2]: 60 to 600 nM

Compound: Cc1nc(NCc2cnn(C3CCN(C(=O)c4ccc(F)cc4)CC3)c2)nc2c1NC(=O)[C@H](C)N2C [Compound 125, (7S)-2-(((1-(1-(4-Fluorobenzoyl)piperidin-4-yl)-1H-pyrazol-4-yl)methyl)amino)-4,7,8-trimethyl-7,8-dihydropteridin-6(5H)-one]
- IC50 ([1]; Homo sapiens, COLO 205, 5 h): 1000 to 5000 nM
- IC50 [2]: 60 to 600 nM

Compound: Cc1nc(NCc2cnn(CC(C)(O)c3ccc(F)cc3)c2)nc2c1NC(=O)[C@H](C)N2C (stereo partly drawn) [Compound 128, (7S)-2-(((1-(2-(4-fluorophenyl)-2-hydroxypropyl)-1H-pyrazol-4-yl)methyl)amino)-4,7,8-trimethyl-7,8-dihydropteridin-6(5H)-one]
- IC50 ([1]; Homo sapiens, COLO 205, 5 h): 1000 to 5000 nM
- IC50 [2]: ≥ 3000 nM

Compound: Cc1nc(NCc2cnn(Cc3ccc(C(F)(F)F)nc3)c2)nc2c1NC(=O)[C@H](C)N2C [Compound 136, (7S)-4,7,8-trimethyl-2-(((1-((6-(trifluoromethyl)pyridin-3-yl)methyl)-111-pyrazol-4-yl)methyl)amino)-7,8-dihydropteridin-6(5H)-one]
- IC50 [1]: < 300 nM
- IC50 [2]: 60 to 600 nM

Compound: Cc1nn(C)cc1Cn1cc(CNc2nc(C)c3c(n2)N(C)[C@@H](C)C(=O)N3)cn1 [Compound 139, (7S)-2-(((1-((1,3-dimethyl-1H-pyrazol-4-yl)methyl)-1H-pyrazol-4-yl)methyl)amino)-4,7,8-trimethyl-7,8-dihydropteridin-6(5H)-one]
- IC50 ([1]; Homo sapiens, COLO 205, 5 h): 1000 to 5000 nM
- IC50 [2]: 600 to 3000 nM

Continued, values first:

- IC50 ([1]; Homo sapiens, COLO 205, 5 h): < 300 nM
- IC50 [2]: 60 to 600 nM
Compound: Cc1nc(N[C@@H]2CC[C@@H](n3ccc(C(F)(F)F)n3)C2)nc2c1NC(=O)[C@H](C)N2C (single isomer, unassigned) [Compound 311]

- IC50 [1]: 1000 to 5000 nM
- IC50 [2]: 60 to 600 nM
Compound: Cc1nc(N[C@H]2CC[C@H](Oc3ccc(C(F)(F)F)nc3)C2)nc2c1NC(=O)[C@H](C)N2C (single isomer, unassigned) [Compound 376]

- IC50 [1]: < 300 nM
- IC50 [2]: < 60 nM
Compound: Cc1nc(N[C@H]2CC[C@H](Oc3ccc(C(F)(F)F)nc3)C2)nc2c1NC(=O)[C@H](C)N2C (single isomer, unassigned) [Compound 377]

- IC50 ([1]; Homo sapiens, COLO 205, 5 h): < 300 nM
- IC50 [2]: 60 to 600 nM
Compound: Cc1nc(NCc2cnn(Cc3ccc(C(F)(F)F)nc3[C@@H](C)O)c2)nc2c1NC(=O)[C@H](C)N2C (single isomer, unassigned) [Compound 420]

- IC50 ([1]; Homo sapiens, COLO 205, 5 h): < 300 nM
- IC50 [2]: < 60 nM
Compound: COc1c(F)cc(Cn2cc(CNc3nc(C)c4c(n3)N(C)[C@@H](C)C(=O)N4)cn2)cc1F [Compound 46, (7S)-2-(((1-(3,5-difluoro-4-methoxybenzyl)-1H-pyrazol-4-yl)methyl)amino)-4,7,8-trimethyl-7,8-dihydropteridin-6(5H)-one]

- IC50 ([1]; Homo sapiens, COLO 205, 5 h): < 300 nM
- IC50 [2]: < 60 nM
Compound: Cc1nc(NCc2cnn(Cc3cccc(C(C)C)c3)c2)nc2c1NC(=O)[C@H](C)N2C [Compound 80, (7S)-2-(((1-(3-isopropylbenzyl)-1H-pyrazol-4-yl)methyl)amino)-4,7,8-trimethyl-7,8-dihydropteridin-6(5H)-one]

- IC50 ([1]; Homo sapiens, COLO 205, 5 h): < 300 nM
- IC50 [2]: < 60 nM
Compound: COc1cc(F)ccc1Cn1cc(CNc2nc(C)c3c(n2)N(C)[C@@H](C)C(=O)N3)cn1 [Compound 83, (7S)-2-(((1-(4-fluoro-2-methoxybenzyl)-1H-pyrazol-4-yl)methyl)amino)-4,7,8-trimethyl-7,8-dihydropteridin-6(5H)-one]

- IC50 ([1]; Homo sapiens, COLO 205, 5 h): < 300 nM
- IC50 [2]: < 60 nM
Compound: Cc1nc(NCc2cnn(C[C@H](C)c3ccc(F)cc3)c2)nc2c1NC(=O)[C@H](C)N2C [Compound 96, (7S)-2-(((1-((R)-2-(4-fluorophenyl)propyl)-1H-pyrazol-4-yl)methyl)amino)-4,7,8-trimethyl-7,8-dihydropteridin-6(5H)-one]

- IC50 ([1]; Homo sapiens, COLO 205, 5 h): < 300 nM
- IC50 [2]: < 60 nM
Compound: Cc1nc(NCc2cnn(Cc3cc(F)c(F)c(F)c3)c2)nc2c1NC(=O)[C@H](C)N2C [Compound 122, (7S)-4,7,8-trimethyl-2-(((1-(3,4,5-trifluorobenzyl)-1H-pyrazol-4-yl)methyl)amino)-7,8-dihydropteridin-6(5H)-one]
